“And” between values parts separate entries of the source, which are not always exact repeats. Identical values can stand only once. “Also recorded” adds a separate entry of the source.
Experiments:
EGFR^WT = EGFR^WT (Homo sapiens, UniProt P00533); assay: EGFRWT kinase inhibitory assay (HTRF)
Description: (§1) In vitro EGFR inhibitory activity was assessed using Homogeneous time-resolved fluorescence (HTRF) assay[64] as described in Supplementary data.
(§2) The IC50 values were calculated using the nonlinear regression fitting models (Graph Pad, Prism Version 5).
(§3) EGFRWT and EGFRT790M kinase inhibitory assay
(§4) Homogeneous time resolved fluorescence (HTRF) assay was applied in this test.
(§5) EGFRWT, EGFRT790M (Sigma). firstly, the EGFRWT and/or EGFRT790M and their substrates were incubated with the tested compounds in enzymatic buffer for 5 min.
(§6) into the reaction mixture to allow starting the enzymatic reaction. The assay was conducted for 30 min at room temperature. The reaction was stopped by addition of detection reagents which contain
(§7) GraphPad Prism 5.0. Three independent experiments were performed for each concentration.

breast cancer (MCF-7) = assay: MTT antiproliferative assay, MCF-7; details: Homo sapiens; for inhibition at 100 µM: MCF7, read-out: Growth inhibition (%) MCF-7
Description: (§8) Preliminary screening against the cancer cell lines was performed, using doxorubicin as a reference drug at doses of 100 μM.
(§9) In vitro cytotoxicity was carried out using MTT assay protocol[63] as described in Supplementary data.
(§10) proliferative activity was assessed quantitatively as follows;
(§11) Human cancer cell lines were dropped in 96-well plates at a density of 3-8 × 10^3 cells/well.
(§12) growth medium was exchanged with 0.1 ml of fresh medium containing graded concentrations of the test compounds to be or equal DMSO and incubated for two days. Then 10 μl MTT solution (0.5 mg/ml) was added to each well, and the cells were incubated for additional 4 h. The crystals of MTT-formazan were dissolved in 100 μl of DMSO; the absorbance of each well was measured at 490 nm using an automatic ELISA reader system (TECAN, CHE). The IC50 values were calculated using the nonlinear regression fitting models (Graph Pad, Prism Version 5). The data represented the mean of three independent experiments in triplicate and were expressed as means
(§13) The results were expressed as growth inhibitory concentration (IC50) values and

PC-3 cells [1] = assay: Cell cycle analysis by flow cytometry (PI staining); format: cell-based, human
EGFR^T790M = EGFR^T790M (Homo sapiens, UniProt P00533, T790M); assay: EGFRT790M kinase inhibitory assay (HTRF)
Chain of EGFR^T790M (P00533 25-1210 T790M): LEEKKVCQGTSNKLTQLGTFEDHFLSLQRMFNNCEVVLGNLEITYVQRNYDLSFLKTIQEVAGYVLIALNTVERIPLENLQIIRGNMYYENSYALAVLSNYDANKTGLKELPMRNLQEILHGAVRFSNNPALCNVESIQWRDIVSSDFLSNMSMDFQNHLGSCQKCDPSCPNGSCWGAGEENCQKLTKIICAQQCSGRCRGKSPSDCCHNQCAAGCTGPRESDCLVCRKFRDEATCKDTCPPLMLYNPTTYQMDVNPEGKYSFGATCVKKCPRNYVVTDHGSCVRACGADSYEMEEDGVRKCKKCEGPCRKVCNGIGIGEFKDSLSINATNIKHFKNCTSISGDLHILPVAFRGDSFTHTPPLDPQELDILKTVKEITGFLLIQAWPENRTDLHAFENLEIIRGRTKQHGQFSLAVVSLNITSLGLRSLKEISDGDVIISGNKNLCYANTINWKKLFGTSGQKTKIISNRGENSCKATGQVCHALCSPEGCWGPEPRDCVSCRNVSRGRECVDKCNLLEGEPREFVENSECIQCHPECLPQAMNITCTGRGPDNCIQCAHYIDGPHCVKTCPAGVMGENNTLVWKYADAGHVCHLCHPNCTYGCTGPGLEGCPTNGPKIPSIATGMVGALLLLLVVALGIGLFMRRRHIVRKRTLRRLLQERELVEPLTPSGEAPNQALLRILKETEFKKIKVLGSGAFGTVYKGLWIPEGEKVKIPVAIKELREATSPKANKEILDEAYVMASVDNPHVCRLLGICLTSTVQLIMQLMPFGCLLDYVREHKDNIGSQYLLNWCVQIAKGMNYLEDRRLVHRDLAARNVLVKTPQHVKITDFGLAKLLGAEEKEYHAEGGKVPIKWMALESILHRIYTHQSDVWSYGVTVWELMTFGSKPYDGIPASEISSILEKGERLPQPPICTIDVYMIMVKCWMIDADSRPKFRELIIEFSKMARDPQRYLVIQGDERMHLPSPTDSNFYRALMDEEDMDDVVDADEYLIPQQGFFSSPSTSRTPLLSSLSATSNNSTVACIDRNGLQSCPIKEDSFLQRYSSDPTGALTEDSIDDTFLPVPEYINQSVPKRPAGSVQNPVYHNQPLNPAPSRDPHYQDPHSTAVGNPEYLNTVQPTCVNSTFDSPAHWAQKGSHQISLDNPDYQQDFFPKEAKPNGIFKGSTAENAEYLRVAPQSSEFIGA
Description: as §1, §2, §3, §4, §5, §6, §7

colon cancer (HCT-116) = assay: MTT antiproliferative assay, HCT-116; details: for inhibition at 100 µM / IC50: Homo sapiens; for inhibition at 100 µM: HCT-116, read-out: Growth inhibition (%) HCT-116; for IC50: HCT-116, read-out: IC50 HCT-116; for Cytotoxic activity against HCT-116: MTT
Description: as §8, §9, §10, §11, §12, §13

PC-3 cells [2] = assay: Annexin V-FITC/PI apoptosis assay; format: cell-based, human; details: PC-3, 7.98 µM, 24 h
Description: The results were depicted in (Figure 6 and Supplementary data).
The effect of compound 8a on cell apoptosis was investigated as described in Supplementary data[76–78].
4.1.3. Annexin V-FITC apoptosis assay.
To detect the apoptosis induced by compound 8a, PC-3 cells were seeded and incubated overnight […]
the negative control. After that, the cells were collected and washed with PBS two successive times. The cells were exposed to centrifugation. Apoptosis detection kit (BD Biosciences, San Jose, CA) was used in this test. According to the manufacturer's protocol the cells were stained by Annexin V-FITC and propidium iodide (PI) in the binding buffer for 20min at room temperature in the dark. Using a flow cytometer, Annexin V-FITC and PI binding were analyzed. flowjo software was used to analyze the frequencies in all quadrants.
Cell cycle distribution (%)

lung cancer (A-549) = assay: MTT antiproliferative assay, A-549; details: Homo sapiens; for inhibition at 100 µM: A549, read-out: Growth inhibition (%) A549; for IC50: A549, read-out: IC50 A-549, MTT, mean of at least three experiments
Description: as §8, §9, §10, §11, §12, §13

prostate cancer (PC-3) = assay: MTT antiproliferative assay, PC-3; details: Homo sapiens; for inhibition at 100 µM: read-out: Growth inhibition (%) PC-3; for IC50: read-out: IC50 PC-3
Description: as §8, §9, §10, §11, §12, §13

caspase-3 in PC-3 cells = assay: Caspase-3 determination (ELISA); format: cell-based, human

Chain of EGFR^WT (P00533 25-1210): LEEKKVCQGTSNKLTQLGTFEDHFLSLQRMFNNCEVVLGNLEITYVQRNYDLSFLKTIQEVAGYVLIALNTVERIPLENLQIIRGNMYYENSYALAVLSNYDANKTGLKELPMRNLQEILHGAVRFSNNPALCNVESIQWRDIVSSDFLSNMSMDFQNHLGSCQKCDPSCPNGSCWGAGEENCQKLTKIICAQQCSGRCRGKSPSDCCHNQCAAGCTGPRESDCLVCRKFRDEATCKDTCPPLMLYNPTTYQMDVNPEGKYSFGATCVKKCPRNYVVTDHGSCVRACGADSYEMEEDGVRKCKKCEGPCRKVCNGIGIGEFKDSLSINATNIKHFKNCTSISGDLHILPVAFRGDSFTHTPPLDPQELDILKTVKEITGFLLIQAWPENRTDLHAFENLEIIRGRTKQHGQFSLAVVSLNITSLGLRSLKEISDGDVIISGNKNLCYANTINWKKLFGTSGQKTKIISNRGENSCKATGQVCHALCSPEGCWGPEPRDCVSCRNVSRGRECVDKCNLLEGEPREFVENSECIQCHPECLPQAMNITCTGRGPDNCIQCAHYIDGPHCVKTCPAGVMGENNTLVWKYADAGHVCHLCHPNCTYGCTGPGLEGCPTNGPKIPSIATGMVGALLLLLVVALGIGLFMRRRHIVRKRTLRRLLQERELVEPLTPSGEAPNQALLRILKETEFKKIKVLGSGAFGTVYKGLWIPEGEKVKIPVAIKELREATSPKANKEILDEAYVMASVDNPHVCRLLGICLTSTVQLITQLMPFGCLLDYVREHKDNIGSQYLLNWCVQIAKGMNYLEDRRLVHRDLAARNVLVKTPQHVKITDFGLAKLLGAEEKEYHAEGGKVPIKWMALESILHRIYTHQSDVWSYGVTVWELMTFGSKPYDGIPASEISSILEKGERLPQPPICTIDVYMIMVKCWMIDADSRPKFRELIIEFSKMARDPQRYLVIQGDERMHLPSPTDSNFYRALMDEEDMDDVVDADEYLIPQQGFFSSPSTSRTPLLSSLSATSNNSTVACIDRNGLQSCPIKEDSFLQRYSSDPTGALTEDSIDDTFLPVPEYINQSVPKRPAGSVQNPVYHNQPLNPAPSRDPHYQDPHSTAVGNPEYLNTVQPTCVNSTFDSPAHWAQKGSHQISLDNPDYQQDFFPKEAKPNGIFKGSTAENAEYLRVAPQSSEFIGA

| IC50 (EGFR^WT) [µM] | IC50 (EGFR^T790M) [µM] | IC50 (colon cancer (HCT-116)) [µM] | IC50 (lung cancer (A-549)) [µM] | IC50 (prostate cancer (PC-3)) [µM] | melting point [°C] | Structure (SMILES) | inhibition at 100 µM (breast cancer (MCF-7)) [%] | inhibition at 100 µM (colon cancer (HCT-116)) [%] | Cytotoxic activity against HCT-116 (colon cancer (HCT-116)) | inhibition at 100 µM (lung cancer (A-549)) [%] | inhibition at 100 µM (prostate cancer (PC-3)) [%] | also measured |
| --- | --- | --- | --- | --- | --- | --- | --- | --- | --- | --- | --- | --- |
| 0.099 ± 0.007 | 0.123 ± 0.01 | 25.6 ± 1.3 | 16.2 ± 2.4 | 7.98 ± 2.4 |  | Cc1ccc(-c2cc(-c3ccc(Cl)cc3)nc3nc4[nH]c5ccccc5c(=O)n4c(=O)c23)cc1 [Compound 8a, 2–(4-Chlorophenyl)-4-(p-tolyl)-5H-pyrido[2',3':4,5]pyrimido [2,1-b] quinazoline-5,7(12H)-dione] | 32 | 84 | mild cytotoxic activity | 90 | 98 | Increase of cell population at %S vs control (PC-3 cells [1]; PC-3, 7.98 µM, 24 h): 1.3 folds; Increase of cell population at pre-G1 vs control (PC-3 cells [1]; PC-3, 7.98 µM, 24 h): 22 folds; Cell cycle distribution %Pre-G1 (PC-3 cells [1]; PC-3, 7.98 µM, 24 h, control 1.78%): 41.06%; Cell cycle distribution %G2-M (PC-3 cells [1]; PC-3, 7.98 µM, 24 h, control 9.75%): 4.93%; Cell cycle distribution %S (PC-3 cells [1]; PC-3, 7.98 µM, 24 h, control 41.03%): 53.69%; Cell cycle distribution %G0-G1 (PC-3 cells [1]; PC-3, 7.98 µM, 24 h, control 49.22%): 41.38%; Cell cycle arrest phase (PC-3 cells [1]; PC-3 cells): arrested the cell cycle at pre-G1 phase; also recorded: arrest the PC-3 cell line at pre-G1; also recorded: arrested the cell cycle at the pre-G1 phase; Increase in early apoptosis ratio vs control (PC-3 cells [2]): 32 fold; Increase in late apoptosis ratio vs control (PC-3 cells [2]): 150 fold; Late apoptosis (PC-3 cells [2]; control 0.15%): 22.49%; Early apoptosis (PC-3 cells [2]; control 0.43%): 13.92%; Necrosis (PC-3 cells [2]; control 1.20): 4.65%; Total apoptosis (PC-3 cells [2]; control 1.78): 41.06%; Increase in caspase-3 level vs control cells (caspase-3 in PC-3 cells; 24 h): 5.3 fold; Caspase-3 level (caspase-3 in PC-3 cells; 24 h treatment, 8a at 3.04 µM, control 84.24, mean ± SEM): 452.3 pg/mL and 452.3 ± 10.5 pg/mL |
|  | 0.29 | 26 ± 1.3 | 16 | 18 ± 2.3 | > 300 | COc1ccc(-c2cc(-c3ccc(C)cc3)nc3nc4[nH]c5ccccc5c(=O)n4c(=O)c23)cc1 [Compound 8b, 4–(4-Methoxyphenyl)-2-(p-tolyl)-5H-pyrido[2',3':4,5] pyrimido[2,1-b] quinazoline-5,7(12H)-dione] | 9 | 67 | mild cytotoxic activity | 94 | 96 |  |
| 0.419 ± 0.029 | 0.29 ± 0.023 | 70.2 ± 2 | 7.23 ± 2.1 | 7.12 ± 2 | > 300 | COc1cc(-c2cc(-c3ccc(C)cc3)nc3nc4[nH]c5ccccc5c(=O)n4c(=O)c23)cc(OC)c1OC [Compound 8d, 2-(p-Tolyl)-4–(3,4,5-trimethoxyphenyl)-5H-pyrido[2',3':4,5] pyrimido[2,1-b]quinazoline-5,7(12H)-dione] | 15 | 78 | mild cytotoxic activity | 97 | 95 |  |
| 0.594 ± 0.042 | 0.571 ± 0.046 |  |  | 9.26 ± 2.4 | 265 to 267 | NNc1nc2nc(-c3ccc(Cl)cc3)cc(-c3ccc(Cl)cc3Cl)c2c(=O)[nH]1 [Compound 9a, 7-(4-Chlorophenyl)-5–(2,4-dichlorophenyl)-2-hydrazineylpyrido[2,3-d]pyrimidin-4(3H)-one] | 68 | 89 |  | 42 | 90 | IC50 (breast cancer (MCF-7); MCF7, read-out: IC50 MCF-7): 42 ± 1.2 µM |

Source: paper PMC9291687
